Experiments:
[1] = Relative ihibition of bovine retina PDE6 and PDE5 of human platelets
[2] = Relative inhibition of PDE2 of rat kidney and PDE5 of human platelets
[3] = target: cGMP-specific 3',5'-cyclic phosphodiesterase (Homo sapiens, UniProt O76074); assay: Inhibition of phosphodiesterase type 5 (PDE5) of human platelets
[4] = Relative inhibition of PDE4 of rat kidney and PDE5 of human platelets
[5] = Relative inhibition of bovine heart PDE1 and PDE5 of human platelets

Compound: CCCOc1ccc(C(N)=O)cc1-c1nc(O)c2cc3c(cc2n1)ncn3Cc1ccc(F)cc1
- IC50 ratio [1]: 60
- IC50 ratio [2]: > 100000
- IC50 [3]: 0.48 nM
- IC50 ratio [4]: 4200
- IC50 ratio [5]: > 100000

Compound: CCCOc1ccc(S(=O)(=O)N2CCN(C)CC2)cc1-c1nc(O)c2cc3[nH]cnc3cc2n1
- IC50 ratio [1]: 2
- IC50 ratio [2]: 1300
- IC50 ratio [4]: 1600
- IC50 ratio [5]: 90

Compound: CCCOc1ccc(S(=O)(=O)N2CCN(C)CC2)cc1-c1nc(O)c2cc3c(cc2n1)ncn3Cc1ccccc1
- IC50 ratio [1]: 20
- IC50 ratio [2]: > 10000
- IC50 [3]: 5.3 nM
- IC50 ratio [4]: 600
- IC50 ratio [5]: 3400

Compound: CCCOc1ccccc1-c1nc(O)c2cc3[nH]cnc3cc2n1
- IC50 ratio [1]: 1
- IC50 ratio [2]: 360
- IC50 [3]: 44 nM
- IC50 ratio [4]: 100
- IC50 ratio [5]: 200
